In brackets after ≈: the same amount, converted by molar mass.
Legend:
Type in all cases: functional
[1] = tested on: Mycolicibacterium fortuitum; assay: Antimycobacterial activity against Mycobacterium fortuitum ATCC 6841 assessed as bacterial growth inhibition incubated for 7 days by resazurin dye based assay; conditions: ATCC 6841, 168 h, time 7 day
Acinetobacter baumannii = assay: Antibacterial activity against Acinetobacter baumannii BAA 1605 assessed as bacterial growth inhibition incubated for 16 to 18 hrs by CLSI based susceptibility testing method; conditions: time 16-18 hrs
[2] = tested on: Mycobacterium tuberculosis; assay: Antimycobacterial activity against Mycobacterium tuberculosis H37Rv ATCC 27294 assessed as bacterial growth inhibition incubated for 7 days by resazurin dye based assay; conditions: H37Rv ATCC 27294, 168 h, time 7 day
Staphylococcus aureus = assay: Antibacterial activity against Staphylococcus aureus ATCC 29213 assessed as bacterial growth inhibition incubated for 16 to 18 hrs by CLSI based susceptibility testing method; conditions: time 16-18 hrs
Klebsiella pneumoniae = assay: Antibacterial activity against Klebsiella pneumoniae BAA 1705 assessed as bacterial growth inhibition incubated for 16 to 18 hrs by CLSI based susceptibility testing method; conditions: time 16-18 hrs
Pseudomonas aeruginosa = assay: Antibacterial activity against Pseudomonas aeruginosa ATCC 27853 assessed as bacterial growth inhibition incubated for 16 to 18 hrs by CLSI based susceptibility testing method; conditions: time 16-18 hrs
Mycobacteroides chelonae = assay: Antimycobacterial activity against Mycobacteroides chelonae ATCC 35752 assessed as bacterial growth inhibition incubated for 7 days by resazurin dye based assay; conditions: ATCC 35752, 168 h, time 7 day
Escherichia coli = assay: Antibacterial activity against Escherichia coli ATCC 25922 assessed as bacterial growth inhibition incubated for 16 to 18 hrs by CLSI based susceptibility testing method; conditions: time 16-18 hrs
[3] = tested on: Mycobacteroides abscessus; assay: Antimycobacterial activity against Mycobacterium abscessus ATCC 19977 assessed as bacterial growth inhibition incubated for 7 days by resazurin dye based assay; conditions: ATCC 19977, 168 h, time 7 day

| SMILES | MIC [1] [µg/mL] | MIC (Acinetobacter baumannii) [µg/mL] | MIC [2] [µg/mL] | MIC (Staphylococcus aureus) [µg/mL] | MIC (Klebsiella pneumoniae) [µg/mL] | MIC (Pseudomonas aeruginosa) [µg/mL] | MIC (Mycobacteroides chelonae) [µg/mL] | MIC (Escherichia coli) [µg/mL] | MIC [3] [µg/mL] |
| --- | --- | --- | --- | --- | --- | --- | --- | --- | --- |
| Cc1cc(/C=C2\S/C(=N/c3nccs3)NC2=O)c(C)n1-c1ccc(Cl)cc1 | > 64 | > 64 | 8 (≈ 19.3 µM) | 4 (≈ 9.64 µM) | > 64 | > 64 | > 64 | > 64 | > 64 |
| Cc1cc(/C=C2\S/C(=N/c3nccs3)NC2=O)c(C)n1-c1cccc(Cl)c1 | > 64 | > 64 | > 64 | 8 (≈ 19.3 µM) | > 64 | > 64 | > 64 | > 64 | > 64 |
| Cc1ccc(-n2c(C)cc(/C=C3\S/C(=N/c4nccs4)NC3=O)c2C)cc1 | > 64 | > 64 | 8 (≈ 20.3 µM) | 4 (≈ 10.1 µM) | > 64 | > 64 | > 64 | > 64 | > 64 |
| Cc1cc(/C=C2\S/C(=N/c3nccs3)NC2=O)c(C)n1-c1ccc(C#N)c(Cl)c1 | > 64 | > 64 | 16 (≈ 36.4 µM) | > 64 | > 64 | > 64 | > 64 | > 64 | > 64 |
| COc1ccc(-n2c(C)cc(/C=C3\S/C(=N/c4nc(C)c(C)s4)NC3=O)c2C)cc1 | > 64 | > 64 | > 64 | > 64 | > 64 | > 64 | > 64 | > 64 | > 64 |
| COc1ccc(-n2c(C)cc(/C=C3\S/C(=N/c4nccs4)NC3=O)c2C)cc1 | > 64 | > 64 | 64 (≈ 156 µM) | 2 (≈ 4.87 µM) | > 64 | > 64 | > 64 | > 64 | > 64 |
| Cc1cc(/C=C2\S/C(=N/c3nccs3)NC2=O)c(C)n1-c1ccccc1Cl | > 64 | > 64 | 16 (≈ 38.6 µM) | 4 (≈ 9.64 µM) | > 64 | > 64 | > 64 | > 64 | > 64 |
| Cc1cc(/C=C2\S/C(=N/c3nccs3)NC2=O)c(C)n1-c1ccccc1 | > 64 | > 64 | 8 (≈ 21 µM) | 2 (≈ 5.26 µM) | > 64 | > 64 | > 64 | > 64 | > 64 |
| Cc1cc(/C=C2\S/C(=N/c3nccs3)NC2=O)c(C)n1-c1ccc(F)cc1 | > 64 | > 64 | 4 (≈ 10 µM) | > 64 | > 64 | > 64 | > 64 | > 64 | > 64 |
| COc1ccc(-n2c(C)cc(/C=C3\S/C(=N/c4nccs4)NC3=O)c2C)cc1OC | > 64 | > 64 | 8 (≈ 18.2 µM) | 4 (≈ 9.08 µM) | > 64 | > 64 | > 64 | > 64 | > 64 |
| Cc1nc(/N=C2\NC(=O)/C(=C/c3cc(C)n(-c4cc(Cl)ccc4O)c3C)S2)sc1C | > 64 | > 64 | > 64 | 64 (≈ 139 µM) | > 64 | > 64 | > 64 | > 64 | > 64 |
| Cc1cc(/C=C2\S/C(=N/c3nccs3)NC2=O)c(C)n1-c1cc(Cl)ccc1O | > 64 | > 64 | 32 (≈ 74.3 µM) | 1 (≈ 2.32 µM) | > 64 | > 64 | > 64 | > 64 | > 64 |
| Cc1cc(/C=C2\S/C(=N/c3nccs3)NC2=O)c(C)n1-c1ccccc1Br | > 64 | > 64 | 8 (≈ 17.4 µM) | 4 (≈ 8.71 µM) | > 64 | > 64 | > 64 | > 64 | > 64 |
| COc1cccc(-n2c(C)cc(/C=C3\S/C(=N/c4nc(C)c(C)s4)NC3=O)c2C)c1 | > 64 | > 64 | 2 (≈ 4.56 µM) | > 64 | > 64 | > 64 | > 64 | > 64 | > 64 |
| Cc1cc(/C=C2\S/C(=N/c3nccs3)NC2=O)c(C)n1-c1ccc([N+](=O)[O-])cc1 | > 64 | > 64 | > 64 | > 64 | > 64 | > 64 | > 64 | > 64 | > 64 |
| Cc1cc(/C=C2\S/C(=N/c3nccs3)NC2=O)c(C)n1-c1cccc(F)c1 | > 64 | > 64 | 8 (≈ 20.1 µM) | 1 (≈ 2.51 µM) | > 64 | > 64 | > 64 | > 64 | > 64 |
| COc1cccc(-n2c(C)cc(/C=C3\S/C(=N/c4nccs4)NC3=O)c2C)c1 | > 64 | > 64 | > 64 | 64 (≈ 156 µM) | > 64 | > 64 | > 64 | > 64 | > 64 |
| COc1ccccc1-n1c(C)cc(/C=C2\S/C(=N/c3nc(C)c(C)s3)NC2=O)c1C | > 64 | > 64 | > 64 | > 64 | > 64 | > 64 | > 64 | > 64 | > 64 |
| Cc1nc(/N=C2\NC(=O)/C(=C/c3cc(C)n(-c4ccc(C#N)c(Cl)c4)c3C)S2)sc1C | > 64 | > 64 | > 64 | > 64 | > 64 | > 64 | > 64 | > 64 | > 64 |
| Cc1nc(/N=C2\NC(=O)/C(=C/c3cc(C)n(-c4ccccc4O)c3C)S2)sc1C | > 64 | > 64 | > 64 | > 64 | > 64 | > 64 | > 64 | > 64 | > 64 |
| Cc1cc(/C=C2\S/C(=N/c3nccs3)NC2=O)c(C)n1-c1ccc(N2CCOCC2)cc1 | > 64 | > 64 | 4 (≈ 8.59 µM) | 16 (≈ 34.4 µM) | > 64 | > 64 | > 64 | > 64 | > 64 |
| Cc1cc(/C=C2\S/C(=N/c3nccs3)NC2=O)c(C)n1-c1ccccc1O | > 64 | > 64 | 16 (≈ 40.4 µM) | 1 (≈ 2.52 µM) | > 64 | > 64 | > 64 | > 64 | > 64 |
| Cc1cc(/C=C2\S/C(=N/c3nccs3)NC2=O)c(C)n1-c1ccc([N+](=O)[O-])c(C(F)(F)F)c1 | > 64 | > 64 | > 64 | > 64 | > 64 | > 64 | > 64 | > 64 | > 64 |
| Cc1nc(/N=C2\NC(=O)/C(=C/c3cc(C)n(-c4ccccc4)c3C)S2)sc1C | > 64 | > 64 | > 64 | > 64 | > 64 | > 64 | > 64 | > 64 | > 64 |

— ChEMBL document CHEMBL5634099, “Pyrrole-thiazolidinone hybrids as a new structural class of broad-spectrum anti-infectives” (Eur J Med Chem, 2023)
